Source: patent US8153599B1, “Compounds with the biological activity of vasoactive intestinal peptide for the treatment of pulmonary and arteriolar hypertension” (Mondobiotech AG, priority 2000, dated 2012)
Like-named read-outs stand apart in the source and are kept apart here. One block for each molecule: values may come before it. No end group written: not given here.

How the values were obtained:
[1] = Acute testing of inhaled peptide in PPH patient, right heart catheterisation (pulmonary hemodynamics and gas exchange); assay type: in vivo, human; details: for mean pulmonary artery pressure (mPAP) after inhalation: 100 μg inhaled for 15 minutes, measured 15 minutes after, baseline 63 (VIP) / 65 (PACAP) mmHg; for PVR after inhalation / SvO2 after inhalation / PaO2 after inhalation: 100 μg inhaled; for PVR after inhalation: baseline 12 (VIP) / 13 (PACAP) woods; for SvO2 after inhalation: baseline 61% (VIP) / 59% (PACAP); for PaO2 after inhalation: baseline 91%
Experimental: A patient with severe PPH was under therapy with diltiazem, furosemid and an anticoagulant. Right heart catheterisation (Swan-Ganz, Baxter, Irvine, Calif., USA) was performed to measure mean pulmonary artery pressure (mpap), cardiac output (CO), mean arterial pressure (MAP), pulmonary capillary wedge pressure (PCWP) mixed venous oxygen saturation (SvO2%) and systemic arterial oxygen pressure (PaO2%). VIP (100 μg in 3 ml NaCl 0.9%) was inhaled for 15 minutes via the MicroDrop Master Jet (MPV, Truma, Germany) using a particle size of 3 μm to provide alveolar deposition of the substance. Alternatively VIP was injected i.v. 20 (ng/kg.b.w./min) via portable pump system (CADD-1, Pharmacia-Upjohn, Vienna, Austria). Pulmonary homodynamic and gas exchange were measured before and 15 minutes after inhalation or i.v. injection of VIP. Right heart catheterisation was performed in the intensive care unit. The patient was monitored on-line electrocardiographically, invasive blood pressure and systemic arterial oxygen saturation (SaO2%) (Hewlett Packard, Böblingen, Germany) were measured. All hemodynamic and oxygen measurements were performed with a cardiac output computer (Explorer, Baxter) and a pressure monitoring kit (Baxter, Irvine, Calif., USA). Calculations were made according to the standard equations in a […] by taking blood from the radial and pulmonary artery (Automatic blood gas system, AVL-995-Hb, Austria). At baseline (before inhalation of VIP), mPAP was 63 mmHg, CI 3.6 l·min^−1, PVR 12 woods, PCWP 9 mmHg, PaO2 91% and SvO2 61%. Addition of 100 μg inhaled VIP improved pulmonary hemodynamic parameters; mPAP decreased to 49 mmHg and PVR to 9 woods. PaO2 to 93% and SvO2 to 63% compared to baseline.
A patient with severe PPH was under therapy with diltiazem, furosemid and an anticoagulant. Right heart catheterisation (Swan-Ganz, Baxter, Irvine, Calif., USA) was performed to measure mean pulmonary artery pressure (mpap), cardiac output (CO), mean arterial pressure (mAP), pulmonary capillary wedge pressure (PCWP) mixed venous oxygen saturation (SvO2%) and systemic arterial oxygen pressure (PaO2%). PACAP (100 μg in 3 ml NaCl 0.9%) was inhaled for 15 minutes via the MicroDrop Master Jet (MPV, Truma, Germany) using a particle size of 3 μm to provide alveolar deposition of the substance. Pulmonary hemodynamics and gas exchange were measured before and 15 minutes after inhalation of PACAP. Right heart catheterisation was performed in the intensive care unit. The patient was monitored on-line electrocardiographically, invasive blood pressure and systemic arterial oxygen saturation (SaO2%) (Hewlett Packard, Böblingen, Germany) were measured. All hemodynamic and oxygen measurements were performed with a cardiac output computer (Explorer, Baxter) and a pressure monitoring kit (Baxter, Irvine, Calif., USA). Calculations were made according to the standard equations in a patient data management system (CareVue 9000, Hewlett Packard, Böblingen, Germany). Blood gas analysis was performed by taking blood from the radial and pulmonary artery (Automatic blood gas system, AVL-995-Hb, Austria). At baseline (before inhalation of PACAP), mPAP was 65 mmHg, CI 3.2 l·min^−1, PVR 13 woods, PCWP 10 mmHg, PaO2 91% and SvO2 59%. Addition of 100 μg inhaled PACAP improved pulmonary hemodynamic parameters; mpap decreased to 45 mmHg and PVR to 8 woods. PaO2 increased to 93% and SvO2 to 62% compared to baseline.

[2] = as above; assay type: in vivo, human; details: for time dependence of mPAP decrease: 100 μg inhaled (FIG. 5b)
[3] = test system: Nitric oxide synthetase (ecnos); assay: Nitric oxide synthetase (ecnos) expression in endothelial cells from pulmonary arteries, Western blot; assay type: cell-based, human; details: 10^−7 M, normoxic and hypoxic conditions, 96 hours (FIG. 8)
Experimental: FIG. 8: Nitric oxide synthetase (ecnos) expression in endothelial cells prepared from pulmonary arteries of control subjects after 96 hours of incubation. Cells were incubated with VIP (10^−7 M) under normoxic (−) and hypoxic (+) conditions for various times. Western blots reveal constitutive expression under normoxic conditions without VIP.
(§1) While VIP-R mRNA accumulation is easily detectable PPH, only low levels of VIP-R mRNA accumulation can be detected in healthy controls (FIG. 3). Analogously an increased receptor binding activity for VIP is seen in primary cultures of pulmonary artery vascular smooth muscle cells (PaVSMC) prepared from pulmonary resistance vessels of PPH patients compared to healthy subjects (FIGS. 4a and 4b). […] Pharmacologically, nitric oxide induces vasodilatation by lowering the intracellular free calcium concentration of PaVSMC.

[4] = test system: VSMC prepared from pulmonary arteries; assay: Interleukin1-b induced elevation of intracellular free calcium in VSMC from pulmonary arteries, fura-2 method; assay type: cell-based, human; details: VIP 250 ng/ml and 500 ng/ml (FIG. 9)
Experimental: FIG. 9: The effect of VIP on the interleukin1-b induced elevation of intracellular free calcium concentration in VSMC prepared from pulmonary arteries. Ordinate-Ca2+ (nmol). 1-basal concentration; 2-interleukin1-b; 3-interleukin1-b plus VIP 250 ng/ml and 4-VIP 500 ng/ml intracellular calcium concentration during incubation with VIP; Ca 2+ was determined by fura-2 method.
as §1

[5] = test system: VSMC from pulmonary arterial vessel; assay: Proliferation of VSMC from pulmonary arterial vessel; assay type: cell-based, human; details: 10^−12 M to 10^−9 M (FIG. 10)
From the text: FIG. 10: The effect of VIP on the proliferation of VSMC from pulmonary arterial vessel. Ordinate-proliferation as percent of control. 1-without VIP; 2-10^−12M VIP; 3-10^−11M VIP; 4-10^−10M VIP; 5-10^−9M VIP.
as §1

[6] = i.v. VIP in patient with severe essential arteriolar hypertension, intraarterial blood pressure monitoring; assay type: in vivo, human; details: 20 ng/kg/min i.v.
Experimental: FIG. 7: The effect of VIP on systolic and diastolic blood pressure in a patient with essential hypertension after intravenous injection. The patient received VIP at 20 ng/kg/b.w./min. Blood pressure was measured intraarterially. Y-axis: pressure (mmHg), x-axis: time (min).
A patient with severe essential arteriolar hypertension is under treatment with nifedipine and enalapril. Systolic and diastolic systemic arterial pressure (SAP) were measured by intraarterial monitoring. VIP (20 ng/kg/min) was injected i.v. via a portable pump system (CADD-1, Pharmacia-Upjohn, Vienna, Austria). […] Before injection of VIP, the systolic pressure (SAP) was 165 mmHg and the diastolic (DAP) was 110 mmHg.

[7] = test system: human pulmonary arterial rings; assay: Vasodilatory effect on human pulmonary arterial rings (vascular tone in vitro); assay type: cell-based; details: after increase of tone by 80 mmol K+, increasing concentrations (FIG. 6)
From the text: FIG. 6: Vasodilatory effect of VIP on human pulmonary arterial rings. Arteries of patients subjected to thorax surgery were surgically removed and tested in vitro under standardized procedures for their vascular tone.

[8] = Inhaled VIP in COPD patient with secondary pulmonary hypertension (SPH); assay type: in vivo, human
Experimental: A patient suffering from Chronic Obstructive Pulmonary Disease (COPD) with secondary pulmonary hypertension (SPH) (mPAP 32 mmHg) was tested for their response to inhaled VIP (200 μg in 3 ml NaCl 0.9%) The inhalation of VIP led to a decrease of mPAP from 32 mmHg to 25 mmHg. This effect was paralleled by increase of cardiac output from 4.1 l·min^−1 to 4.8 l·min^−1.

[9] = test system: isolated VSMC prepared from pulmonary arteries; assay: Binding of 99 mTc-VIP to isolated VSMC prepared from pulmonary arteries; set-up: species or system human; details: for Kd: read-out: binding affinity Kd
From the text: FIG. 4: Binding of 99 mTc-VIP to isolated VSMC prepared from pulmonary arteries of PPH patients (4b) and control patients (4a).
as §1

[10] = target: VIP receptor (VIP-R) on vascular smooth muscle cells prepared from human pulmonary arteries (human); assay: radioligand binding of 99mTc-VIP to isolated VSMC from pulmonary arteries of PPH patients (FIG. 4b)
[11] = target: VIP receptor (VIP-R) on vascular smooth muscle cells prepared from human pulmonary arteries (human); assay: radioligand binding of 99mTc-VIP to isolated VSMC from pulmonary arteries of control patients (FIG. 4a)
[12] = VSMC of control patients (FIG. 4a)

Molecule: His-Ser-Asp-Ala-Val-Phe-Thr-Asp-Asn-Tyr-Thr-Arg-Leu-Arg-Lys-Gln-Met-Ala-Val-Lys-Lys-Tyr-Leu-Asn-Ser-Ile-Leu-Asn (HSDAVFTDNYTRLRKQMAVKKYLNSILN; listed as Homo sapiens) [VIP, 28 amino acid peptide hormone]
- mean pulmonary artery pressure (mPAP) after inhalation [1]: 49 mmHg
- PVR after inhalation [1]: 9 woods
- SvO2 after inhalation [1]: 63%
- PaO2 after inhalation [1]: 93%
- time dependence of mPAP decrease ([2]; PPH patient): Time dependant decrease
- dose dependence of mPAP decrease ([2]; PPH patient, increased inhaled doses (FIG. 5a)): dose-dependently decrease
- dose of maximum efficacy on mPAP ([2]; PPH patient, inhaled): 100 µg
- ecnos expression [3]: increased expression of ecnos above constitutional level
- intracellular free calcium concentration [4]: decrease of the intracellular free calcium concentration
- proliferation of PaVSMC [5]: inhibits the proliferation
- diastolic pressure (DAP) after application ([6]; before 110 mmHg): 90 mmHg
- systolic pressure (SAP) after application ([6]; before 165 mmHg): 145 mmHg
- vessel tone [7]: continuous decrease of the vessel tone
- mPAP after inhalation ([8]; 200 μg in 3 ml NaCl 0.9% inhaled, from 32 mmHg): 25 mmHg
- cardiac output after inhalation ([8]; 200 μg inhaled, from 4.1 l·min^−1): 4.8 L/min

Molecule: His-Ser-Asp-Gly-Ile-Phe-Thr-Asp-Ser-Tyr-Ser-Arg-Tyr-Arg-Lys-Gln-Met-Ala-Val-Lys-Lys-Tyr-Leu-Ala-Ala-Val-Leu-Gly-Lys-Arg-Tyr-Lys-Gln-Arg-Val-Lys-Asn-Lys (HSDGIFTDSRYSRYRKQMAVKKYLAAVLGKRYKQRVNK; listed as Homo sapiens) [PACAP, neuropeptide of 38 amino acid residues]
- mean pulmonary artery pressure (mPAP) after inhalation [1]: 45 mmHg
- PVR after inhalation [1]: 8 woods
- SvO2 after inhalation [1]: 62%
- PaO2 after inhalation [1]: 93%
- time dependence of mPAP decrease ([2]; PPH patient): time-dependently decrease
- CI ([2]; Table 1, after, mean, before mean 2.7): 3.2
- PCWP ([2]; Table 1, after, mean, before mean 8.6): 8.5
- mPAP ([2]; Table 1, after, mean, before mean 57.1): 44.4
- SvO2 ([2]; Table 1, after, mean, before mean 60.0): 62.5
- PaO2 ([2]; Table 1, after, mean, before mean 66.8): 69.3
- mAP ([2]; Table 1, after, mean, before mean 84.5): 81.0
- PVR ([2]; Table 1, after, mean, before mean 906.4): 544.1

- specific binding Bmax ([9]; VSMC of PPH patients (FIG. 4b)): 0.9 pm per mg protein
- Kd ([9]; VSMC of PPH patients (FIG. 4b)): 1.6 pM
- specific binding Bmax [9, 12]: 0.6 pm per mg protein
- Kd [9, 12]: 42 pM
Molecule: 99 mTc-VIP: radiolabeled VIP

- Bmax (pm per mg protein) [10]: 0.9
- Kd [10]: 1.6 pM
- Bmax (pm per mg protein) [11]: 0.6
B1: 99mTc-labelled vasoactive intestinal peptide (VIP) (peptide)
peptide: HSDAVFTDNYTRLRKQMAVKKYLNSILN
modifications: ends and bridges not checked; also: 99mTc radiolabel, site and chelator not given here
